Results taken from PubChem BioAssay AID330 (DTP/NCI, 2004).
“And” between values parts separate entries of the source, which are not always exact repeats. Equal values may be shown once. Inconclusive results and toxic doses are left out. How the source made its calls: active means survival T/C of 150% or more; inactive means T/C below 125% in these data.

Tested on: P388 leukemia ip, CD2F1 mice, survival T/C
Test: NCI In Vivo Anticancer Drug Screen. Data for tumor model P388 Leukemia (intraperitoneal) in CD2F1 (CDF1) mice
Details: endpoint: median survival time, higher = longer survival
Method in brief: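 Mice carrying the transplanted tumor received test compound or vehicle. Survival was recorded in each group, and the value is the treated-group measurement divided by that of the vehicle-treated control group.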

[1] = dose: 60.0 mg/kg/injection, schedule: Q01DX005 (ip), vehicle: saline with Tween-80
[2] = dose: 120.0 mg/kg/injection, schedule: Q01DX005 (ip), vehicle: saline with Tween-80
[3] = dose: 240.0 mg/kg/injection, schedule: Q01DX005 (ip), vehicle: saline with Tween-80
[4] = dose: 12.5 mg/kg/injection, schedule: Q01DX009 (ip), vehicle: saline with Tween-80
[5] = dose: 25.0 mg/kg/injection, schedule: Q01DX009 (ip), vehicle: saline with Tween-80
[6] = dose: 50.0 mg/kg/injection, schedule: Q01DX005 (ip), vehicle: saline with Tween-80
[7] = dose: 100.0 mg/kg/injection, schedule: Q01DX005 (ip), vehicle: saline with Tween-80
[8] = dose: 100.0 mg/kg/injection, schedule: Q04DX003 (ip), vehicle: saline with Tween-80
[9] = dose: 200.0 mg/kg/injection, schedule: Q04DX003 (ip), vehicle: saline with Tween-80
[10] = dose: 400.0 mg/kg/injection, schedule: Q04DX003 (ip), vehicle: saline with Tween-80
[11] = dose: 25.0 mg/kg/injection, schedule: Q01DX009 (ip), vehicle: Klucel (hydroxypropylcellulose) (HPC)

Measured: T/C

COc1ccccc1C1c2cc3c(cc2OC(C)(OC)C1C)OCO3 (stereo not given)
inactive: [1] 93 % of control | [2] 90 % of control | [3] 92 % of control

COc1cc2oc3ccccc3c(=O)c2cc1CSc1ccccc1N
inactive: [4] 89 % of control and 96 % of control | [5] 93 % of control and 98 % of control | dose: 50.0 mg/kg/injection, schedule: Q01DX009 (ip), vehicle: saline with Tween-80 92 % of control and 96 % of control | dose: 100.0 mg/kg/injection, schedule: Q01DX009 (ip), vehicle: saline with Tween-80 87 % of control and 89 % of control

CN1CCN(C)B1N=S=NB1N(C)CCN1C
inactive: dose: 12.5 mg/kg/injection, schedule: Q01DX005 (ip), vehicle: olive oil, sesame oil, peanut oil 100 % of control and 105 % of control | dose: 25.0 mg/kg/injection, schedule: Q01DX005 (ip), vehicle: olive oil, sesame oil, peanut oil 105 % of control and 96 % of control | dose: 50.0 mg/kg/injection, schedule: Q01DX005 (ip), vehicle: olive oil, sesame oil, peanut oil 104 % of control and 97 % of control | dose: 100.0 mg/kg/injection, schedule: Q01DX005 (ip), vehicle: olive oil, sesame oil, peanut oil 102 % of control and 103 % of control

CC(C)(Oc1ccc(Cl)cc1)C(=O)OCCCC(=O)NC1CC(C)(C)N(O)C(C)(C)C1
inactive: dose: 200.0 mg/kg/injection, schedule: Q01DX001 (ip), vehicle: saline 105 % of control | dose: 400.0 mg/kg/injection, schedule: Q01DX001 (ip), vehicle: saline 115 % of control

C=C1C(=O)O[C@H]2C[C@@H]1C(=O)C/C(C)=C/CC/C(C)=C/CC[C@@]2(C)OCSC
inactive: dose: 8.0 mg/kg/injection, schedule: Q01DX009 (ip), vehicle: Klucel (hydroxypropylcellulose) (HPC) 116 % of control | dose: 16.0 mg/kg/injection, schedule: Q01DX009 (ip), vehicle: Klucel (hydroxypropylcellulose) (HPC) 103 % of control | dose: 32.0 mg/kg/injection, schedule: Q01DX009 (ip), vehicle: Klucel (hydroxypropylcellulose) (HPC) 111 % of control | dose: 64.0 mg/kg/injection, schedule: Q01DX009 (ip), vehicle: Klucel (hydroxypropylcellulose) (HPC) 92 % of control

COc1ccc(C2CC(C)(N3CCCC3)Oc3cc4c(cc32)OCO4)cc1 (stereo not given)
inactive: [1] 101 % of control | [2] 92 % of control | [3] 98 % of control

[O-][n+]1nn(CC(O)CCl)c2ccccc21 (stereo not given)
inactive: [6] 102 % of control | [7] 102 % of control | [8] 103 % of control | dose: 200.0 mg/kg/injection, schedule: Q01DX005 (ip), vehicle: saline with Tween-80 100 % of control | [9] 98 % of control | [10] 93 % of control

CC1(C)CNC(=S)O1
inactive: dose: 6.25 mg/kg/injection, schedule: Q01DX009 (ip), vehicle: Klucel (hydroxypropylcellulose) (HPC) 107 % of control | dose: 12.5 mg/kg/injection, schedule: Q01DX009 (ip), vehicle: Klucel (hydroxypropylcellulose) (HPC) 100 % of control | [11] 88 % of control and 89 % of control

CCN(CC)c1ccc(/C=C/c2ccnc3ccccc23)cc1
inactive: [4] 118 % of control | dose: 12.5 mg/kg/injection, schedule: Q04DX003 (ip), vehicle: saline sonified 100 % of control | dose: 12.5 mg/kg/injection, schedule: Q04DX003 (ip), vehicle: saline with Tween-80 90 % of control | dose: 20.0 mg/kg/injection, schedule: Q04DX003 (ip), vehicle: saline 113 % of control | [5] 104 % of control | dose: 25.0 mg/kg/injection, schedule: Q04DX003 (ip), vehicle: saline sonified 104 % of control | dose: 25.0 mg/kg/injection, schedule: Q04DX003 (ip), vehicle: saline with Tween-80 100 % of control | dose: 40.0 mg/kg/injection, schedule: Q04DX003 (ip), vehicle: saline 118 % of control | dose: 50.0 mg/kg/injection, schedule: Q04DX003 (ip), vehicle: saline sonified 109 % of control | dose: 50.0 mg/kg/injection, schedule: Q04DX003 (ip), vehicle: saline with Tween-80 109 % of control

O=C(O)CCCC12CCC(CCCC(=O)O)(CC1)CC2
inactive: dose: 100.0 mg/kg/injection, schedule: Q04DX003 (ip), vehicle: Klucel (hydroxypropylcellulose) (HPC) 99 % of control | dose: 200.0 mg/kg/injection, schedule: Q04DX003 (ip), vehicle: Klucel (hydroxypropylcellulose) (HPC) 97 % of control | dose: 400.0 mg/kg/injection, schedule: Q04DX003 (ip), vehicle: Klucel (hydroxypropylcellulose) (HPC) 104 % of control

CCOC(=O)C(SC#N)[Se]c1ccccc1 (stereo not given)
inactive: [6] 106 % of control | [7] 109 % of control

O=C(O)CC1Sc2nc3c(n2C1(O)c1ccccc1)-c1ccccc1CC3 (stereo not given)
inactive: [11] 111 % of control | dose: 50.0 mg/kg/injection, schedule: Q01DX009 (ip), vehicle: Klucel (hydroxypropylcellulose) (HPC) 98 % of control | dose: 100.0 mg/kg/injection, schedule: Q01DX009 (ip), vehicle: Klucel (hydroxypropylcellulose) (HPC) 100 % of control

COC(=O)C1CC2C3C=CC(C4C(=O)NC(=O)C34)C12OC (stereo not given)
inactive: dose: 100.0 mg/kg/injection, schedule: Q01DX001 (ip), vehicle: saline with Tween-80 95 % of control | dose: 200.0 mg/kg/injection, schedule: Q01DX001 (ip), vehicle: saline with Tween-80 92 % of control

CCCCCCCC[N+]1([O-])CC[N+](C)([O-])CC1 (stereo not given)
inactive: dose: 60.0 mg/kg/injection, schedule: Q01DX005 (ip), vehicle: saline 100 % of control | dose: 120.0 mg/kg/injection, schedule: Q01DX005 (ip), vehicle: saline 101 % of control | dose: 240.0 mg/kg/injection, schedule: Q01DX005 (ip), vehicle: saline 102 % of control

Cc1cc(NC(=O)c2ccc(C(=O)Nc3ccc(C4=NCCN4)c(C)c3)cc2)ccc1C1=NCCN1
inactive: [8] 118 % of control | [9] 104 % of control | [10] 104 % of control

CN1C(=O)OC2OC(C)(c3ccc(S(=O)(=O)c4ccccc4)cc3)C(=O)CC21 (stereo not given)
inactive: [1] 100 % of control | [2] 97 % of control | [3] 90 % of control

Cc1c(O)c(=O)ccn1CCO
inactive: dose: 50.0 mg/kg/injection, schedule: Q01DX005 (ip), vehicle: saline 102 % of control and 104 % of control | dose: 100.0 mg/kg/injection, schedule: Q01DX005 (ip), vehicle: saline 100 % of control and 106 % of control | dose: 200.0 mg/kg/injection, schedule: Q01DX005 (ip), vehicle: saline 117 % of control and 124 % of control

CC(=O)C(N=Nc1ccc(S(=O)(=O)Nc2ncccn2)cc1)C(C)=O
inactive: [8] 92 % of control | [9] 88 % of control | [10] 90 % of control

CC1(C)CC2(CC3(C1)SCCS3)OCCO2
inactive: [8] 98 % of control | [9] 99 % of control | [10] 97 % of control

C/C=C(\C)N=NNc1ccccc1
inactive: dose: 100.0 mg/kg/injection, schedule: Q04DX003 (ip), vehicle: saline + Tween-80 + alcohol 114 % of control | dose: 200.0 mg/kg/injection, schedule: Q04DX003 (ip), vehicle: saline + Tween-80 + alcohol 114 % of control

O=C(NP1(=O)NCc2ccccc2CN1)OC1CCCC1
inactive: dose: 3.12 mg/kg/injection, schedule: Q01DX005 (ip), vehicle: Klucel (hydroxypropylcellulose) (HPC) 99 % of control and 92 % of control | dose: 6.25 mg/kg/injection, schedule: Q01DX005 (ip), vehicle: Klucel (hydroxypropylcellulose) (HPC) 101 % of control and 91 % of control | dose: 12.5 mg/kg/injection, schedule: Q01DX005 (ip), vehicle: Klucel (hydroxypropylcellulose) (HPC) 99 % of control and 104 % of control | dose: 25.0 mg/kg/injection, schedule: Q01DX005 (ip), vehicle: Klucel (hydroxypropylcellulose) (HPC) 92 % of control and 93 % of control and 98 % of control | dose: 50.0 mg/kg/injection, schedule: Q01DX005 (ip), vehicle: Klucel (hydroxypropylcellulose) (HPC) 91 % of control | dose: 200.0 mg/kg/injection, schedule: Q01DX005 (ip), vehicle: Klucel (hydroxypropylcellulose) (HPC) 88 % of control
